PMC8747069, “Sesquiterpene Lactones with Dual Inhibitory Activity against the Trypanosoma brucei Pteridine Reductase 1 and Dihydrofolate Reductase” (Molecules, 2021)
Where two headings read alike, the source gives them in different places.

Tests used:
TbPTR1 = target: T1, TbPTR1 (Trypanosoma brucei brucei, UniProt O76290); test: Spectrophotometric inhibition assay with recombinant TbPTR1; format: biochemical; conditions: for inhibition at 100 µM: read-out: TbPTR1 Inhibition at 100 µM (%); for EC50: EC50 reported because complete inhibition not reached (solubility issues), read-out: TbPTR1 EC50 (footnote a in IC50 column)
T1 sequence (O76290 1-268): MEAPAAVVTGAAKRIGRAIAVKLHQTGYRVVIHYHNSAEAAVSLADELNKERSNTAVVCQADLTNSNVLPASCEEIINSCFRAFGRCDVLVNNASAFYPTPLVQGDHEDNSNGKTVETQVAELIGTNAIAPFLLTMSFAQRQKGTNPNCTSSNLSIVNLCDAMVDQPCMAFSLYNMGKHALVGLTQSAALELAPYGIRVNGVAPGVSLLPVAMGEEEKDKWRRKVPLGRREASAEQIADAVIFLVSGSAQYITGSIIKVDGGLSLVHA
Description: The concentration and the activity of TbPTR1, as well as the saturating conditions of its substrate and co-substrate were determined by monitoring the oxidation of the co-substrate NADPH to NADP^+ via UV/Vis spectroscopy (Hitachi U-2900, Tokyo, Japan). […] The experiments were carried out as triplicates using buffer A (50 mM Tris/HCl (pH 7.6), 250 mM NaCl).
(§1) The concentration of TbPTR1 was 3.23 mg/mL. Its specific activity was calculated to be 0.03 U/mg. All experiments were carried out using the saturating concentrations of folic acid (8 µM) and NADPH (150 µM). The diagrams for the determination of the saturating conditions are depicted in the Supplementary Materials Figure S15.
(§2) All measurements were carried out as duplicates and compared with a reference containing no inhibitor. The reference measurements were used to determine the full catalytic activity of the respective enzyme (100%), and the relative catalytic activity of all following measurements including inhibitors was calculated accordingly.
(§3) The compounds that were able to inhibit the activity of TbPTR1 or TbDHFR ≥ 50% in the single concentration assays were further investigated by the determination of their half maximal inhibitory concentration (IC50), including at least five inhibitor concentrations. If a complete inhibition of the enzyme could not be achieved experimentally due to the given assay conditions, the half maximal effective concentration (EC50) was determined instead. All measurements were carried out as triplicates against a reference containing no inhibitor at saturating conditions (Section 4.8.). The documented enzyme activity was analysed by nonlinear regression using GraphPad Prism 8 (GraphPad Software Inc., La Jolla, CA, USA).

TbDHFR = TbDHFR (Trypanosoma brucei brucei, UniProt Q27783); test: Spectrophotometric inhibition assay with recombinant TbDHFR; format: biochemical; conditions: for inhibition at 50 µM / TbDHFR Inhibition at 50 µM (%): NADPH 150 µM, DHF 50 µM
Description: Kinetic analysis of TbDHFR was performed according to 4.5. All measurements were carried out as triplicates using buffer B (50 mM Tris/HCl (pH 7.6), 250 mM NaCl, 10 mM BME).
as §1, with “TbDHFR” for “TbPTR1”, “0.04 mg/mL with a” for “3.23 mg/mL. Its”, “of 38.1” for “was calculated to be 0.03”, “dihydrofolate (DHF, 50” for “folic acid (8”, “S16.” for “S15.”
as §2, §3

T. brucei rhodesiense = conditions: in vitro growth inhibition; cited from earlier work
T. brucei = system: T. brucei; set-up: method as in PMID 22331812; conditions: acute mouse model; cited from earlier work
[1] = 100 µM compound, NADPH 150 µM, folic acid 8 µM
[2] = 50 µM compound, read-out: TbDHFR Inhibition at 50 µM (%)

Chain of TbDHFR (Q27783 28-238 limits assumed): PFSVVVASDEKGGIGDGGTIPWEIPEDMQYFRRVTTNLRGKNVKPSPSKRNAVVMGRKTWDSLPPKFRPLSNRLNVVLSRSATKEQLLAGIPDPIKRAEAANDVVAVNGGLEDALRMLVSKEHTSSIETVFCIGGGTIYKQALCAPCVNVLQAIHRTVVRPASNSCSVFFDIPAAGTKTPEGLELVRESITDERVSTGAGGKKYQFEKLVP

SMILES | inhibition at 100 µM (TbPTR1; [1]) | inhibition at 50 µM (TbDHFR; [2]) | IC50 (T. brucei rhodesiense) | further results
C=C1C(=O)OC2C=C(C)C(O)CC=C(C)CC(OC(=O)C(=CCOC(=O)C(O)C(C)C)CO)C12 (stereo not shown) [Compound 9] | 28.5% | 95.9% | 2600 nM | –
C=C1C(=O)O[C@@H]2/C=C(\C)C[C@H](O)/C=C(\C)C[C@@H](OC(=O)/C(=C\C)COC(C)=O)[C@@H]12 [Compound 7] | – | – | 1600 nM | inhibition at 100 µM (TbPTR1): 25.6%; inhibition at 50 µM (TbDHFR; read-out: TbDHFR Inhibition at 50 µM (%), 50 µM compound): 48.7%
C=C1C(=O)O[C@H]2[C@H]1[C@H](OC(=O)/C(=C/COC(=O)C(O)C(C)C)CO)C[C@]1(C)[C@@H]2[C@H](C)C(=O)C[C@H]1O (stereo partly shown) [Compound 8] | 14.2% | 40.7% | 2700 nM | –
C=C1C(=O)OC2C=C(C)C(OC(=O)C(O)C(C)C)CC=C(C)CC(OC(=O)C(=CCO)CO)C12 (stereo not shown) [Compound 6] | 33.1% | – | 800 nM | TbDHFR Inhibition at 50 µM (%) (TbDHFR; 50 µM compound): n.i.
C=C1C(=O)O[C@@H]2/C=C(\CO)CC/C=C(\C)C[C@H](OC(=O)C(=C)[C@H](O)CO)[C@@H]12 [Compound 1, cnicin] | 63.9% | 15.2% | 400 nM | EC50 (TbPTR1): 21200 nM
C=C(CO)C(=O)O[C@H]1CC(=C)[C@@H]2C[C@H](O)C(=C)[C@@H]2[C@H]2OC(=O)C(=C)[C@@H]21 [Compound 2, cynaropicrin] | – | – | 300 nM | IC50 (TbPTR1): 12400 nM; inhibition at 100 µM (TbPTR1): 92.1%; IC50 (TbDHFR): 7100 nM; in vivo activity against the parasite (T. brucei): in vivo activity against the parasite
C=C1C(=O)OC2C=C(C)C(OC(C)=O)CC=C(C)CC(OC(=O)C(=CCO)CO)C12 (stereo not shown) [Compound 5, (Z)-eucannabinolide] | 58.1% | – | 1700 nM | EC50 (TbPTR1): 31500 nM; TbDHFR Inhibition at 50 µM (%) (TbDHFR; 50 µM compound): No TbDHFR inhibition could be detected and n.i.
C=C1C(=O)OC2C1CC(OC(=O)C(C)C(C)O)C(C)=CCCC1(C)OC21 (stereo not shown) [Compound 3] | 73.1% | > 50% | 1300 nM | IC50 (TbPTR1; saturating conditions, nonlinear regression, read-out: TbPTR1 IC50): 40500 nM; IC50 (TbDHFR; saturating conditions, nonlinear regression, read-out: TbDHFR IC50): 13300 nM
C=C1C(=O)OC2C=C(C)C(O)CC=C(C)CC(OC(=O)C(=CCOC(=O)C(O)C(C)CC)CO)C12 (stereo not shown) [Compound 10] | 26.7% | 20.1% | 4000 nM | –
C=C1C(=O)O[C@@H]2/C=C(/CO)C3=CC(=O)[C@@](C)(C[C@@H](OC(=O)/C(C)=C\C)[C@@H]12)O3 [Compound 4] | 79.9% | 34.9% | 100 nM | IC50 (TbPTR1): 30500 nM
